Data: ChEMBL document CHEMBL1201862, “PubChem BioAssay data set” (2004)
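In this assay, cells in 96-well plates receive the compound at five concentrations for 48 hours. Endpoints are linearly interpolated between the surrounding concentrations. GI50 marks 50% less growth.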 Calls of active or inactive are those of the source. Cut-off read from the data, not from the text of the source: active = GI50 up to about 1.1 µM and inactive = higher.

Assays:
Assay in all cases: growth of human tumour cells (NCI), 48 h
[1] = tested on: 786-0
[2] = tested on: A498
[3] = tested on: A549
[4] = tested on: ACHN
[5] = tested on: BT-549
[6] = tested on: CAKI-1
[7] = tested on: CCRF-CEM
[8] = tested on: COLO 205
[9] = tested on: DU-145
[10] = tested on: EKVX
[11] = tested on: HCC 2998
[12] = tested on: HCT-116
[13] = tested on: HCT-15
[14] = tested on: HL-60
[15] = tested on: HOP-62
[16] = tested on: HOP-92
[17] = tested on: HT-29
[18] = tested on: Hs-578T
[19] = tested on: IGROV-1
[20] = tested on: K562
[21] = tested on: KM12
[22] = tested on: LOX IMVI
[23] = tested on: M14
[24] = tested on: MCF7
[25] = tested on: MDA-MB-231
[26] = tested on: MDA-MB-435
[27] = tested on: MDA-N
[28] = tested on: MOLT-4
[29] = tested on: Malme-3M
[30] = tested on: NCI-H226
[31] = tested on: NCI-H23
[32] = tested on: NCI-H522
[33] = tested on: NCI/ADR-RES
[34] = tested on: OVCAR-3
[35] = tested on: OVCAR-4
[36] = tested on: OVCAR-5
[37] = tested on: OVCAR-8
[38] = tested on: PC-3
[39] = tested on: RPMI-8226
[40] = tested on: RXF 393
[41] = tested on: SF-268
[42] = tested on: SF-295
[43] = tested on: SF-539
[44] = tested on: SK-MEL-28
[45] = tested on: SK-MEL-2
[46] = tested on: SK-MEL-5
[47] = tested on: SK-OV-3
[48] = tested on: SN12C
[49] = tested on: SNB-19
[50] = tested on: SNB-75
[51] = tested on: SR
[52] = tested on: SW-620
[53] = tested on: T47D
[54] = tested on: TK-10
[55] = tested on: U-251
[56] = tested on: UACC-257
[57] = tested on: UACC-62
[58] = tested on: UO-31
[59] = tested on: NCI-H460

Measured: GI50

Cc1ccc(C(=O)Nc2ccc(CP(=O)(O)O)cc2CP(=O)(O)O)cc1N
inactive: [1] > 100 µM | [2] > 100 µM | [3] > 100 µM | [4] > 100 µM | [5] > 100 µM | [6] > 100 µM | [7] > 100 µM | [8] > 100 µM | [9] > 100 µM | [10] > 100 µM | [11] > 100 µM | [12] > 100 µM | [14] > 100 µM | [15] > 100 µM | [16] > 100 µM | [17] > 100 µM | [18] > 100 µM | [19] > 100 µM | [20] > 100 µM | [21] > 100 µM | [22] > 100 µM | [23] > 100 µM | [24] > 100 µM | [25] > 100 µM | [26] > 100 µM | [27] > 100 µM | [28] > 100 µM | [29] > 100 µM | [30] > 100 µM | [31] > 100 µM | [32] > 100 µM | [33] > 100 µM | [34] > 100 µM | [35] > 100 µM | [36] > 100 µM | [37] > 100 µM | [38] > 100 µM | [39] > 100 µM | [40] > 100 µM | [41] > 100 µM | [42] > 100 µM | [43] > 100 µM | [44] > 100 µM | [45] > 100 µM | [46] > 100 µM | [47] > 100 µM | [48] > 100 µM | [49] > 100 µM | [50] > 100 µM | [51] > 100 µM | [52] > 100 µM | [53] > 100 µM | [54] > 100 µM | [55] > 100 µM | [56] > 100 µM | [57] > 100 µM | [58] > 100 µM
> 100 µM: [13]

COC1(CC[C@H](C)COC2OC(CO)C(O)C(O)C2O)O[C@H]2C[C@H]3[C@@H]4CC=C5C[C@@H](OC6OC(CO)C(OC7OC(C)C(O)C(O)C7O)C(O)C6OC6OC(C)C(O)C(O)C6O)CC[C@]5(C)[C@H]4CC[C@]3(C)[C@H]2[C@@H]1C (stereo partly specified)
inactive: [1] 2.42 µM | [2] 23.5 µM | [3] 1.99 µM | [4] 12 µM | [5] 4.88 µM | [6] 1.48 µM | [7] 11.1 µM | [8] 6.25 µM | [9] 2.42 µM | [10] 19.5 µM | [11] 6.32 µM | [14] 8.55 µM | [15] 1.87 µM | [16] 1.9 µM | [17] 2.52 µM | [18] 1.9 µM | [19] 6.73 µM | [21] 2.47 µM | [22] 1.9 µM | [23] 3.12 µM | [24] 8.45 µM | [25] 5.05 µM | [26] 1.77 µM | [27] 2.88 µM | [28] > 23.5 µM | [29] 3.45 µM | [30] 5.73 µM | [31] 5.53 µM | [32] 2.31 µM | [33] 3.67 µM | [34] 6.1 µM | [35] 3.78 µM | [36] 4.2 µM | [37] 3.37 µM | [38] 3.28 µM | [39] 2.32 µM | [40] 4.57 µM | [41] 3.24 µM | [42] 4.29 µM | [43] 1.96 µM | [44] 3.77 µM | [45] 3.78 µM | [46] 4.98 µM | [47] 2.82 µM | [48] 7.76 µM | [49] 3.46 µM | [50] 1.86 µM | [51] > 100 µM | [52] 2.67 µM | [53] 2.45 µM | [54] 35.6 µM | [55] 2.4 µM | [56] 5.51 µM | [58] 2.47 µM
2.68 µM: [13]

O=c1[nH]c(=O)n(C/C=C/CBr)nc1Br
14.5 µM: [13]
inactive: [1] 12.6 µM | [2] 13.5 µM | [3] 15.8 µM | [4] 13 µM | [5] 14.5 µM | [6] 11.9 µM | [7] 7.74 µM | [8] 14.2 µM | [9] > 100 µM | [10] 15.1 µM | [11] 14.9 µM | [12] 13 µM | [14] 5.87 µM | [15] 21.9 µM | [16] 13.4 µM | [17] 12.9 µM | [18] 19 µM | [19] 15.9 µM | [20] 15.8 µM | [21] 14.9 µM | [22] 1.81 µM | [23] 13.9 µM | [24] 10.1 µM | [25] 3.49 µM | [26] 13.6 µM | [27] 14.1 µM | [28] 16 µM | [29] 14.2 µM | [30] 13.9 µM | [31] 12.6 µM | [59] 17.5 µM | [32] 4.33 µM | [33] 17.6 µM | [34] 11.6 µM | [35] 10.4 µM | [36] 16.9 µM | [37] 14.5 µM | [38] 12.2 µM | [39] 4.08 µM | [40] 12 µM | [41] 14.1 µM | [42] 17.2 µM | [43] 14 µM | [44] 14.9 µM | [45] 12.6 µM | [46] 13.2 µM | [48] 14.8 µM | [49] 14.7 µM | [50] 12 µM | [51] 3.08 µM | [52] 14.4 µM | [53] 12.6 µM | [54] 17.7 µM | [55] 9.4 µM | [56] 12.3 µM | [57] 13.8 µM | [58] 18.5 µM
